# Laboratory results taken from PubChem BioAssay AID1259407 (Chemical Carcinogenesis Research Information System (CCRIS), 2018).
# Calls of active or inactive are those of the source. The rule behind the calls is not given here.
# System: CCRIS mutagenicity, Ames/micronucleus/aberration tests
# Assay: CCRIS mutagenicity studies
# [1] = Test System: AMES SALMONELLA TYPHIMURIUM, Strain/Indicator: TA98, Metabolic Activation: NONE, Method: STANDARD PLATE
# [2] = Test System: AMES SALMONELLA TYPHIMURIUM, Strain/Indicator: TA100, Metabolic Activation: NONE, Method: STANDARD PLATE
# [3] = Test System: AMES SALMONELLA TYPHIMURIUM, Strain/Indicator: TA97, Metabolic Activation: NONE, Method: STANDARD PLATE
# [4] = Test System: AMES SALMONELLA TYPHIMURIUM, Strain/Indicator: TA102, Metabolic Activation: NONE, Method: STANDARD PLATE
smiles,measurement,setting,value
Cc1ccco1,mutagenic call,"Test System: AMES SALMONELLA TYPHIMURIUM, Strain/Indicator: TA97, Metabolic Activation: NONE, Method: PREINCUBATION",inactive; negative
same,mutagenic call,"Test System: AMES SALMONELLA TYPHIMURIUM, Strain/Indicator: TA98, Metabolic Activation: HAMSTER, LIVER, S-9, AROCLOR 1254 (10%), Method: PREINCUBATION",inactive; negative
same,mutagenic call,"Test System: AMES SALMONELLA TYPHIMURIUM, Strain/Indicator: TA98, Metabolic Activation: HAMSTER, LIVER, S-9, AROCLOR 1254 (30%), Method: PREINCUBATION",inactive; negative
same,mutagenic call,"Test System: AMES SALMONELLA TYPHIMURIUM, Strain/Indicator: TA98, Metabolic Activation: NONE, Method: PREINCUBATION",inactive; negative
same,mutagenic call,[1],inactive; negative
same,mutagenic call,"Test System: AMES SALMONELLA TYPHIMURIUM, Strain/Indicator: TA98, Metabolic Activation: RAT, LIVER, S-9, AROCLOR 1254 (10%), Method: PREINCUBATION",inactive; negative
same,mutagenic call,"Test System: AMES SALMONELLA TYPHIMURIUM, Strain/Indicator: TA98, Metabolic Activation: RAT, LIVER, S-9, AROCLOR 1254 (30%), Method: PREINCUBATION",inactive; negative
same,mutagenic call,"Test System: AMES SALMONELLA TYPHIMURIUM, Strain/Indicator: TA98, Metabolic Activation: RAT, LIVER, S-9, AROCLOR 1254, Method: PREINCUBATION",inactive; negative
same,mutagenic call,"Test System: AMES SALMONELLA TYPHIMURIUM, Strain/Indicator: TA98, Metabolic Activation: S-9, Method: STANDARD PLATE",inactive; negative
same,mutagenic call,"Test System: AMES SALMONELLA TYPHIMURIUM, Strain/Indicator: TA100, Metabolic Activation: HAMSTER, LIVER, S-9, AROCLOR 1254 (10%), Method: PREINCUBATION",inactive; negative
same,mutagenic call,"Test System: AMES SALMONELLA TYPHIMURIUM, Strain/Indicator: TA100, Metabolic Activation: HAMSTER, LIVER, S-9, AROCLOR 1254 (30%), Method: PREINCUBATION",inactive; negative
same,mutagenic call,"Test System: AMES SALMONELLA TYPHIMURIUM, Strain/Indicator: TA100, Metabolic Activation: NONE, Method: PREINCUBATION",inactive; negative
same,mutagenic call,[2],inactive; negative
same,mutagenic call,"Test System: AMES SALMONELLA TYPHIMURIUM, Strain/Indicator: TA100, Metabolic Activation: RAT, LIVER, S-9, AROCLOR 1254 (10%), Method: PREINCUBATION",inactive; negative
same,mutagenic call,"Test System: AMES SALMONELLA TYPHIMURIUM, Strain/Indicator: TA100, Metabolic Activation: RAT, LIVER, S-9, AROCLOR 1254 (30%), Method: PREINCUBATION",inactive; negative
same,mutagenic call,"Test System: AMES SALMONELLA TYPHIMURIUM, Strain/Indicator: TA100, Metabolic Activation: RAT, LIVER, S-9, AROCLOR 1254, Method: PREINCUBATION",inactive; negative
same,mutagenic call,"Test System: AMES SALMONELLA TYPHIMURIUM, Strain/Indicator: TA100, Metabolic Activation: S-9, Method: STANDARD PLATE",inactive; negative
same,mutagenic call,"Test System: AMES SALMONELLA TYPHIMURIUM, Strain/Indicator: TA102, Metabolic Activation: HAMSTER, LIVER, S-9, AROCLOR 1254 (10 OR 30%), Method: PREINCUBATION",inactive; negative
same,mutagenic call,"Test System: AMES SALMONELLA TYPHIMURIUM, Strain/Indicator: TA102, Metabolic Activation: NONE, Method: PREINCUBATION",inactive; negative
same,mutagenic call,"Test System: AMES SALMONELLA TYPHIMURIUM, Strain/Indicator: TA102, Metabolic Activation: RAT, LIVER, S-9, AROCLOR 1254 (10%), Method: PREINCUBATION",inactive; negative
same,mutagenic call,"Test System: AMES SALMONELLA TYPHIMURIUM, Strain/Indicator: TA102, Metabolic Activation: RAT, LIVER, S-9, AROCLOR 1254 (30%), Method: PREINCUBATION",inactive; negative
same,mutagenic call,"Test System: AMES SALMONELLA TYPHIMURIUM, Strain/Indicator: TA102, Metabolic Activation: RAT, LIVER, S-9, AROCLOR 1254, Method: PREINCUBATION",inactive; negative
same,mutagenic call,"Test System: AMES SALMONELLA TYPHIMURIUM, Strain/Indicator: TA104, Metabolic Activation: HAMSTER, LIVER, S-9, AROCLOR 1254 (5%), Method: PREINCUBATION",inactive; negative
same,mutagenic call,"Test System: AMES SALMONELLA TYPHIMURIUM, Strain/Indicator: TA104, Metabolic Activation: HAMSTER, LIVER, S-9, AROCLOR 1254 (10 OR 30%), Method: PREINCUBATION",inactive; negative
same,mutagenic call,"Test System: AMES SALMONELLA TYPHIMURIUM, Strain/Indicator: TA104, Metabolic Activation: NONE, Method: PREINCUBATION",inactive; negative
same,mutagenic call,"Test System: AMES SALMONELLA TYPHIMURIUM, Strain/Indicator: TA104, Metabolic Activation: RAT, LIVER, S-9, AROCLOR 1254 (5%), Method: PREINCUBATION",inactive; negative
same,mutagenic call,"Test System: AMES SALMONELLA TYPHIMURIUM, Strain/Indicator: TA104, Metabolic Activation: RAT, LIVER, S-9, AROCLOR 1254 (10 OR 30%), Method: PREINCUBATION",inactive; negative
same,mutagenic call,"Test System: AMES SALMONELLA TYPHIMURIUM, Strain/Indicator: TA1535, Metabolic Activation: HAMSTER, LIVER, S-9, AROCLOR 1254 (10 OR 30%), Method: PREINCUBATION",inactive; negative
same,mutagenic call,"Test System: AMES SALMONELLA TYPHIMURIUM, Strain/Indicator: TA1535, Metabolic Activation: NONE, Method: PREINCUBATION",inactive; negative
same,mutagenic call,"Test System: AMES SALMONELLA TYPHIMURIUM, Strain/Indicator: TA1535, Metabolic Activation: RAT, LIVER, S-9, AROCLOR 1254 (10 OR 30%), Method: PREINCUBATION",inactive; negative
CC(C)N1C(=O)c2ccccc2NS1(=O)=O,mutagenic call,[3],inactive; negative
same,mutagenic call,"Test System: AMES SALMONELLA TYPHIMURIUM, Strain/Indicator: TA97, Metabolic Activation: RAT, LIVER, S-9, DELOR 103, Method: STANDARD PLATE",inactive; negative
same,mutagenic call,[1],inactive; negative
same,mutagenic call,"Test System: AMES SALMONELLA TYPHIMURIUM, Strain/Indicator: TA98, Metabolic Activation: RAT, LIVER, S-9, DELOR 103, Method: STANDARD PLATE",inactive; negative
same,mutagenic call,[2],inactive; negative
same,mutagenic call,"Test System: AMES SALMONELLA TYPHIMURIUM, Strain/Indicator: TA100, Metabolic Activation: RAT, LIVER, S-9, DELOR 103, Method: STANDARD PLATE",inactive; negative
same,mutagenic call,"Test System: AMES SALMONELLA TYPHIMURIUM, Strain/Indicator: TA1535, Metabolic Activation: NONE, Method: STANDARD PLATE",inactive; negative
same,mutagenic call,"Test System: AMES SALMONELLA TYPHIMURIUM, Strain/Indicator: TA1535, Metabolic Activation: RAT, LIVER, S-9, DELOR 103, Method: STANDARD PLATE",inactive; negative
same,mutagenic call,"Test System: AMES SALMONELLA TYPHIMURIUM, Strain/Indicator: TA1538, Metabolic Activation: NONE, Method: STANDARD PLATE",inactive; negative
same,mutagenic call,"Test System: AMES SALMONELLA TYPHIMURIUM, Strain/Indicator: TA1538, Metabolic Activation: RAT, LIVER, S-9, DELOR 103, Method: STANDARD PLATE",inactive; negative
ICI,mutagenic call,[4],inactive; negative
same,mutagenic call,"Test System: AMES SALMONELLA TYPHIMURIUM, Strain/Indicator: TA2638, Metabolic Activation: NONE, Method: STANDARD PLATE",inactive; negative
same,mutagenic call,"Test System: E. COLI, Strain/Indicator: WP2 (PKM101), Metabolic Activation: NONE, Method: STANDARD PLATE",inactive; negative
same,mutagenic call,"Test System: E. COLI, Strain/Indicator: WP2 UVRA (PKM101), Metabolic Activation: NONE, Method: STANDARD PLATE",active; positive
O=C/C=C/C=C/C(=O)O,mutagenic call,"Test System: CHINESE HAMSTER V-79, Strain/Indicator: V-79 (HGPRT)/8-AZAGUANINE, Metabolic Activation: NONE",active; positive
Cn1c(CC(=O)OCCCl)c(C(=O)O)c2ccccc21,mutagenic call,[3],inactive; negative
same,mutagenic call,"Test System: AMES SALMONELLA TYPHIMURIUM, Strain/Indicator: TA97, Metabolic Activation: RAT, LIVER, S-9, AROCLOR 1254 (4%, 10%), Method: STANDARD PLATE",inactive; negative
same,mutagenic call,[1],active; positive
same,mutagenic call,"Test System: AMES SALMONELLA TYPHIMURIUM, Strain/Indicator: TA98, Metabolic Activation: RAT, LIVER, S-9, AROCLOR 1254 (4%, 10%), Method: STANDARD PLATE",inactive; negative
same,mutagenic call,[2],inactive; negative
same,mutagenic call,"Test System: AMES SALMONELLA TYPHIMURIUM, Strain/Indicator: TA100, Metabolic Activation: RAT, LIVER, S-9, AROCLOR 1254 (4%, 10%), Method: STANDARD PLATE",inactive; negative
same,mutagenic call,[4],inactive; negative
same,mutagenic call,"Test System: AMES SALMONELLA TYPHIMURIUM, Strain/Indicator: TA102, Metabolic Activation: RAT, LIVER, S-9, AROCLOR 1254 (4%, 10%), Method: STANDARD PLATE",inactive; negative
